Source: PubChem BioAssay AID2060513 (Molecular Pharmacology Branch, DTP, NCI, 2025)

Tested on: 299254-011-R-J1-PDC complex spheroids viability
Experiment: Anticancer human tumor 299254-011-R-J1-PDC patient-derived melanoma cell line growth inhibition [GQUAD]
Conditions: for IC50: curve of first compound; for viability, T/C: stronger effect = lower value
Procedure, shortened: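 Viability of tumor cells grown as complex spheroids with endothelial and stromal cells, exposed to drug combinations. Top concentration at or near clinical Cmax (else 10 microM), diluted in half-log increments.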

[1] = second compound 0.0316 µM, first compound 0.0316 µM
[2] = second compound 0.0316 µM, first compound 0.1 µM
[3] = second compound 0.0316 µM, first compound 0.316 µM
[4] = second compound 0.0316 µM, first compound 1 µM
[5] = second compound 0.0316 µM, first compound 3.16 µM
[6] = second compound 0.0316 µM, first compound 10 µM
[7] = second compound 0.1 µM, first compound 0.0316 µM
[8] = second compound 0.1 µM, first compound 0.1 µM
[9] = second compound 0.1 µM, first compound 0.316 µM
[10] = second compound 0.1 µM, first compound 1 µM
[11] = second compound 0.1 µM, first compound 3.16 µM
[12] = second compound 0.1 µM, first compound 10 µM
[13] = second compound 0.316 µM, first compound 0.0316 µM
[14] = second compound 0.316 µM, first compound 0.1 µM
[15] = second compound 0.316 µM, first compound 0.316 µM
[16] = second compound 0.316 µM, first compound 1 µM
[17] = second compound 0.316 µM, first compound 3.16 µM
[18] = second compound 0.316 µM, first compound 10 µM
[19] = second compound 1 µM, first compound 0.0316 µM
[20] = second compound 1 µM, first compound 0.1 µM
[21] = second compound 1 µM, first compound 0.316 µM
[22] = second compound 1 µM, first compound 1 µM
[23] = second compound 1 µM, first compound 3.16 µM
[24] = second compound 1 µM, first compound 10 µM
[25] = second compound 3.16 µM, first compound 0.0316 µM
[26] = second compound 3.16 µM, first compound 0.1 µM
[27] = second compound 3.16 µM, first compound 0.316 µM
[28] = second compound 3.16 µM, first compound 1 µM
[29] = second compound 3.16 µM, first compound 3.16 µM
[30] = second compound 3.16 µM, first compound 10 µM
[31] = second compound 10 µM, first compound 0.0316 µM
[32] = second compound 10 µM, first compound 0.1 µM
[33] = second compound 10 µM, first compound 0.316 µM
[34] = second compound 10 µM, first compound 1 µM
[35] = second compound 10 µM, first compound 3.16 µM
[36] = second compound 10 µM, first compound 10 µM
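Further: spheroids exposed to the agents for seven days before readout.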
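Wherever viability, T/C is given: percent viability relative to DMSO vehicle control wells = 100%.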

CC(C)n1c(=O)n(C)c2cnc3cc(F)c(-c4ccc(OCCCN5CCCCC5)nc4)cc3c21 + CN(C)c1ccc(Nc2c3ccc(NC(=O)CCN4CCCC4)cc3nc3cc(NC(=O)CCN4CCCC4)ccc23)cc1
IC50 (second compound 0.0316 µM): 9230 nM | IC50 (second compound 0.1 µM): 8050 nM | IC50 (second compound 0.316 µM): 8130 nM | IC50 (second compound 1 µM): 7220 nM | IC50 (second compound 3.16 µM): 5700 nM | IC50 (second compound 10 µM): 2130 nM | viability, T/C [1]: 102% | viability, T/C [2]: 108% | viability, T/C [3]: 91.2% | viability, T/C [4]: 76.3% | viability, T/C [5]: 94% | viability, T/C [6]: 46.7% | viability, T/C [7]: 93.4% | viability, T/C [8]: 79.6% | viability, T/C [9]: 106% | viability, T/C [10]: 80.7% | viability, T/C [11]: 81.3% | viability, T/C [12]: 42.7% | viability, T/C [13]: 86.4% | viability, T/C [14]: 102% | viability, T/C [15]: 87% | viability, T/C [16]: 93.2% | viability, T/C [17]: 85.7% | viability, T/C [18]: 42.1% | viability, T/C [19]: 91.6% | viability, T/C [20]: 87.1% | viability, T/C [21]: 79.4% | viability, T/C [22]: 77.6% | viability, T/C [23]: 85.9% | viability, T/C [24]: 36.5% | viability, T/C [25]: 93.9% | viability, T/C [26]: 81.8% | viability, T/C [27]: 86.2% | viability, T/C [28]: 77.2% | viability, T/C [29]: 61.9% | viability, T/C [30]: 38.1% | viability, T/C [31]: 83.2% | viability, T/C [32]: 79.9% | viability, T/C [33]: 77% | viability, T/C [34]: 64.5% | viability, T/C [35]: 42.4% | viability, T/C [36]: 28.9%

CC1COCCN1c1cc(-c2ccnn2C)c2ccnc(-c3ccn[nH]3)c2n1 (stereo not given) + CN(C)c1ccc(Nc2c3ccc(NC(=O)CCN4CCCC4)cc3nc3cc(NC(=O)CCN4CCCC4)ccc23)cc1
IC50 (second compound 0.0316 µM): 185 nM | IC50 (second compound 0.1 µM): 189 nM | IC50 (second compound 0.316 µM): 206 nM | IC50 (second compound 1 µM): 202 nM | IC50 (second compound 3.16 µM): 215 nM | IC50 (second compound 10 µM): 215 nM | viability, T/C [1]: 84.5% | viability, T/C [2]: 67.2% | viability, T/C [3]: 35% | viability, T/C [4]: 17.3% | viability, T/C [5]: 13% | viability, T/C [6]: 11.2% | viability, T/C [7]: 85.5% | viability, T/C [8]: 74.9% | viability, T/C [9]: 29.6% | viability, T/C [10]: 20% | viability, T/C [11]: 14.2% | viability, T/C [12]: 13% | viability, T/C [13]: 91.8% | viability, T/C [14]: 77.1% | viability, T/C [15]: 33.4% | viability, T/C [16]: 19% | viability, T/C [17]: 15.1% | viability, T/C [18]: 11.8% | viability, T/C [19]: 107% | viability, T/C [20]: 71.3% | viability, T/C [21]: 36.1% | viability, T/C [22]: 21.2% | viability, T/C [23]: 14.9% | viability, T/C [24]: 13.8% | viability, T/C [25]: 102% | viability, T/C [26]: 73.7% | viability, T/C [27]: 37% | viability, T/C [28]: 24.5% | viability, T/C [29]: 17.9% | viability, T/C [30]: 15.7% | viability, T/C [31]: 80.6% | viability, T/C [32]: 74.4% | viability, T/C [33]: 37.3% | viability, T/C [34]: 23.6% | viability, T/C [35]: 18.8% | viability, T/C [36]: 16.9%

CC1COCCN1c1cc(C2(O)CC3CCC(C2)O3)c2cnn(-c3ccn[nH]3)c2n1 (stereo not given) + CN(C)c1ccc(Nc2c3ccc(NC(=O)CCN4CCCC4)cc3nc3cc(NC(=O)CCN4CCCC4)ccc23)cc1
IC50 (second compound 0.0316 µM): 140 nM | IC50 (second compound 0.1 µM): 99.8 nM | IC50 (second compound 0.316 µM): 180 nM | IC50 (second compound 1 µM): 137 nM | IC50 (second compound 3.16 µM): 147 nM | IC50 (second compound 10 µM): 117 nM | viability, T/C [1]: 77.1% | viability, T/C [2]: 60.4% | viability, T/C [3]: 25.2% | viability, T/C [4]: 18% | viability, T/C [5]: 13.7% | viability, T/C [6]: 6.37% | viability, T/C [7]: 87% | viability, T/C [8]: 51.1% | viability, T/C [9]: 24.2% | viability, T/C [10]: 17.4% | viability, T/C [11]: 12.4% | viability, T/C [12]: 5.43% | viability, T/C [13]: 82.9% | viability, T/C [14]: 73% | viability, T/C [15]: 27.6% | viability, T/C [16]: 16.7% | viability, T/C [17]: 9.78% | viability, T/C [18]: 5.4% | viability, T/C [19]: 93.8% | viability, T/C [20]: 59.3% | viability, T/C [21]: 25.9% | viability, T/C [22]: 17.8% | viability, T/C [23]: 12.5% | viability, T/C [24]: 5.02% | viability, T/C [25]: 86.8% | viability, T/C [26]: 61% | viability, T/C [27]: 27.7% | viability, T/C [28]: 19.2% | viability, T/C [29]: 14% | viability, T/C [30]: 6.53% | viability, T/C [31]: 98.5% | viability, T/C [32]: 54% | viability, T/C [33]: 25.9% | viability, T/C [34]: 13.8% | viability, T/C [35]: 15.2% | viability, T/C [36]: 7.27%

CC1COCCN1c1cc(C2(S(C)(=N)=O)CC2)nc(-c2ccnc3[nH]ccc23)n1 (stereo not given) + CN(C)c1ccc(Nc2c3ccc(NC(=O)CCN4CCCC4)cc3nc3cc(NC(=O)CCN4CCCC4)ccc23)cc1
IC50 (second compound 0.0316 µM): 6240 nM | IC50 (second compound 0.1 µM): 3930 nM | IC50 (second compound 0.316 µM): 5060 nM | IC50 (second compound 1 µM): 4480 nM | IC50 (second compound 3.16 µM): 3630 nM | IC50 (second compound 10 µM): 2910 nM | viability, T/C [1]: 99.6% | viability, T/C [2]: 106% | viability, T/C [3]: 98% | viability, T/C [4]: 93.1% | viability, T/C [5]: 75.6% | viability, T/C [6]: 32.2% | viability, T/C [7]: 116% | viability, T/C [8]: 128% | viability, T/C [9]: 101% | viability, T/C [10]: 77.5% | viability, T/C [11]: 59.7% | viability, T/C [12]: 27.9% | viability, T/C [13]: 105% | viability, T/C [14]: 98.2% | viability, T/C [15]: 131% | viability, T/C [16]: 82.4% | viability, T/C [17]: 71.4% | viability, T/C [18]: 23.5% | viability, T/C [19]: 114% | viability, T/C [20]: 95.3% | viability, T/C [21]: 85% | viability, T/C [22]: 78% | viability, T/C [23]: 65.5% | viability, T/C [24]: 27.9% | viability, T/C [25]: 125% | viability, T/C [26]: 100% | viability, T/C [27]: 87.3% | viability, T/C [28]: 80.4% | viability, T/C [29]: 53.2% | viability, T/C [30]: 28.3% | viability, T/C [31]: 105% | viability, T/C [32]: 117% | viability, T/C [33]: 101% | viability, T/C [34]: 98% | viability, T/C [35]: 46.1% | viability, T/C [36]: 32%

COc1ccc([C@@H](O)c2cc(-c3ncnc4cc(N5CCOCC5)ccc34)c(F)cc2Cl)nn1 + CN(C)c1ccc(Nc2c3ccc(NC(=O)CCN4CCCC4)cc3nc3cc(NC(=O)CCN4CCCC4)ccc23)cc1
IC50 (second compound 0.0316 µM): > 10000 nM | IC50 (second compound 0.1 µM): > 10000 nM | IC50 (second compound 0.316 µM): 9570 nM | IC50 (second compound 1 µM): > 10000 nM | IC50 (second compound 3.16 µM): > 10000 nM | IC50 (second compound 10 µM): > 10000 nM | viability, T/C [1]: 105% | viability, T/C [2]: 116% | viability, T/C [3]: 104% | viability, T/C [4]: 96.6% | viability, T/C [5]: 85.9% | viability, T/C [6]: 72.5% | viability, T/C [7]: 105% | viability, T/C [8]: 124% | viability, T/C [9]: 98.3% | viability, T/C [10]: 108% | viability, T/C [11]: 106% | viability, T/C [12]: 61.6% | viability, T/C [13]: 96.8% | viability, T/C [14]: 94.5% | viability, T/C [15]: 90% | viability, T/C [16]: 106% | viability, T/C [17]: 96.4% | viability, T/C [18]: 48.1% | viability, T/C [19]: 124% | viability, T/C [20]: 111% | viability, T/C [21]: 106% | viability, T/C [22]: 106% | viability, T/C [23]: 92.6% | viability, T/C [24]: 59.1% | viability, T/C [25]: 96.5% | viability, T/C [26]: 126% | viability, T/C [27]: 113% | viability, T/C [28]: 93.1% | viability, T/C [29]: 117% | viability, T/C [30]: 68.5% | viability, T/C [31]: 123% | viability, T/C [32]: 112% | viability, T/C [33]: 97.5% | viability, T/C [34]: 106% | viability, T/C [35]: 88.9% | viability, T/C [36]: 50.8%
